Assay [1] addresses T1, Dihydrofolate reductase (Rattus norvegicus, UniProt Q920D2).
T1 sequence (Q920D2 whole entry): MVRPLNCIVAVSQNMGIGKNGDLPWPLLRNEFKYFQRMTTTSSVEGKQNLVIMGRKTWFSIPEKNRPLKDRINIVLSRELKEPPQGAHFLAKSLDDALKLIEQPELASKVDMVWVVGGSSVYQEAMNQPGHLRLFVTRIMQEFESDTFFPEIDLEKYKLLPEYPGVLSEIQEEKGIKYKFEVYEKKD
Nature of the assay: Inhibitory activity against dihydrofolate reductase (DHFR) from rat liver. The conditions noted are these: read-out: I50.

The target of assay [2] is Bifunctional dihydrofolate reductase-thymidylate synthase (Plasmodium berghei str. ANKA, UniProt Q27713). The assay can be described thus: Inhibitory activity against dihydrofolate reductase (DHFR) of Plasmodium berghei. The conditions noted are these: read-out: I50.
For assay [3], the target named is Dihydrofolate reductase (Neisseria gonorrhoeae, UniProt P04174). The assay can be described thus: Inhibitory activity against dihydrofolate reductase (DHFR) of Neisseria gonorrhoea. The conditions noted are these: read-out: I50.
Assay [4] concerns the target T2, Dihydrofolate reductase (Rattus norvegicus) (UniProt Q920D2).
T2 sequence (whole entry): T1 sequence (Q920D2 whole entry)
Nature of the assay: Inhibitory activity against dihydrofolate reductase (DHFR) of Rat liver at a concentration 10 E -6 M.

The target in assay [5] is T2, Dihydrofolate reductase (Rattus norvegicus). Nature of the assay: Inhibitory activity against dihydrofolate reductase (DHFR) of Rat liver at a concentration 2 x 10 E -5 M.

Chain of Dihydrofolate reductase (Neisseria gonorrhoeae, UniProt P04174) (P04174 whole entry): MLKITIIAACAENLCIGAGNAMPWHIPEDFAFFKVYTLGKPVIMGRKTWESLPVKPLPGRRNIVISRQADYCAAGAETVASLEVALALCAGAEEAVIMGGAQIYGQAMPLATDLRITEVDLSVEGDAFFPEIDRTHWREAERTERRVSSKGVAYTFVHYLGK
Chain of Bifunctional dihydrofolate reductase-thymidylate synthase (Q27713 whole entry): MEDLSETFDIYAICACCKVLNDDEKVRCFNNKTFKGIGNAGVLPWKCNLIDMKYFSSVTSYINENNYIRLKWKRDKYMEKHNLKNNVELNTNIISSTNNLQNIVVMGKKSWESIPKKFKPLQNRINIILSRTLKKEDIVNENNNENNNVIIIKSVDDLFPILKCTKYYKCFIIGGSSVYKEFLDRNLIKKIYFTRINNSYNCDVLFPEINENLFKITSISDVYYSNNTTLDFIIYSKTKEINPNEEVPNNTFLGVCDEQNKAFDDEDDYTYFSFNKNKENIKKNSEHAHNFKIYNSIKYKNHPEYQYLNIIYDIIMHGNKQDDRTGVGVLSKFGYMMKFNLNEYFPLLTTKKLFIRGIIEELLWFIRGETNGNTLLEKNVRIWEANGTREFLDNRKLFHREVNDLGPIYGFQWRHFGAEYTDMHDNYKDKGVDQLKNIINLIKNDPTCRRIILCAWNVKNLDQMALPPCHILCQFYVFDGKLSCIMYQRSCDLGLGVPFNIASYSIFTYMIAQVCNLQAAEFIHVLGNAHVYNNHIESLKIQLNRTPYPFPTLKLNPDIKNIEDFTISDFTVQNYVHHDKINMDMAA

`CCCc1cc(Cc2cnc(N)nc2N)cc(CC)c1O`: the values for the IC50 (at Dihydrofolate reductase [1]; in assay [2]; on Dihydrofolate reductase [3]) were 4450 nM, 15 nM and 49 nM, respectively.
Taken in the same sequence, the figures for `CC(C)(C)c1cc(Cc2cnc(N)nc2N)cc(C(C)(C)C)c1O` were 34500 nM, 140 nM and 61 nM.
Taken in the same sequence, the figures for `COc1c(C(C)C)cc(Cc2cnc(N)nc2N)cc1C(C)C` were 13000 nM, 23 nM and 63 nM.
In the case of `Nc1ncc(Cc2cc(I)c(OCCCOc3ccccc3)c(I)c2)c(N)n1`, the IC50 is 1580 nM on Dihydrofolate reductase [1] and 43 nM at Dihydrofolate reductase [3].
For the molecule `Cc1cc(Cc2cnc(N)nc2N)cc(C(C)C)c1N`, the IC50 on Dihydrofolate reductase [3] amounted to 260 nM.
Regarding `Cc1cc(Cc2cnc(N)nc2N)cc(C(C)(C)C)c1N`, the IC50 amounted to 370000 nM on Dihydrofolate reductase [1] and 390 nM on Dihydrofolate reductase [3].
Consider `CCOc1cc(Cc2cnc(N)nc2N)cc(OCC)c1OCC`, for which the IC50 was 30000 nM at Dihydrofolate reductase [1], 7.5 nM in assay [2] and 220 nM on Dihydrofolate reductase [3].
Regarding `COc1cc(Cc2cnc(N)nc2N)ccc1N`, the IC50 on Dihydrofolate reductase [1] worked out at 470000 nM.
`CC(C)c1cc(Cc2cnc(N)nc2N)cc(C(C)C)c1N`: the results for the IC50 at Dihydrofolate reductase [1] and at Dihydrofolate reductase [3] were 34000 nM and 137 nM, respectively.
Regarding `CCc1cc(Cc2cnc(N)nc2N)cc(CC)c1OCCCOc1ccccc1`, the IC50 on Dihydrofolate reductase [1] was found to be 8750 nM; in assay [2], 10 nM; at Dihydrofolate reductase [3], 64 nM.
As for `CCc1cc(Cc2cnc(N)nc2N)cc(CC)c1OCCO`, the IC50 on Dihydrofolate reductase [1] came to 120000 nM; on Dihydrofolate reductase [3], 45 nM.
In the case of `CCc1cc(Cc2cnc(N)nc2N)cc(CC)c1OC`, the IC50 at Dihydrofolate reductase [1] is 58000 nM; in assay [2], 12.1 nM; on Dihydrofolate reductase [3], 155 nM.
Taken in the same sequence, the figures for `CCc1cc(Cc2cnc(N)nc2N)cc(CC)c1O` were 16000 nM, 28 nM and 120 nM.
For the molecule `Nc1ncc(Cc2cc(Br)c(N)c(Br)c2)c(N)n1`, the IC50 on Dihydrofolate reductase [1] was 57000 nM; at Dihydrofolate reductase [3], 93 nM.
In the case of `COc1c(C)cc(Cc2cnc(N)nc2N)cc1C(C)(C)C`, the figures for the IC50 (on Dihydrofolate reductase [1]; in assay [2]; on Dihydrofolate reductase [3]) were 130000 nM, 77 nM and 240 nM, respectively.
`CCCc1cc(Cc2cnc(N)nc2N)cc(CCC)c1O`: the values for the IC50 (at Dihydrofolate reductase [1]; in assay [2]; at Dihydrofolate reductase [3]) were 2000 nM, 5.7 nM and 20 nM, respectively.
Consider `CCOc1c(CC)cc(Cc2cnc(N)nc2N)cc1CC`, for which the values for the IC50 (on Dihydrofolate reductase [1]; in assay [2]; at Dihydrofolate reductase [3]) were 52000 nM, 35 nM and 356 nM, respectively.
In turn, `CCOc1c(C)c(C)c(Cc2cnc(N)nc2N)c(C)c1C` registered an Inhibition in assay [4] of 0%.
For the molecule `COc1cc(Cc2cnc(N)nc2N)cc(OC)c1O` [4-HYDROXYTRIMETHOPRIM], the IC50 at Dihydrofolate reductase [3] stood at 330 nM.
`CCc1cc(Cc2cnc(N)nc2N)cc(C)c1N`: the IC50 came out at 144000 nM at Dihydrofolate reductase [1] and 560 nM on Dihydrofolate reductase [3].
For the molecule `CCCCCCCCCCCCOc1c(CC)cc(Cc2cnc(N)nc2N)cc1CC`, the results for the IC50 (at Dihydrofolate reductase [1]; in assay [2]; at Dihydrofolate reductase [3]) were 64000 nM, 350 nM and 3500 nM, respectively.
Consider `Cc1cc(Cc2cnc(N)nc2N)cc(Cl)c1N`, for which, on Dihydrofolate reductase [1], the IC50 stood at 160000 nM.
For `CCCCC(CC)COc1c(CC)cc(Cc2cnc(N)nc2N)cc1CC` (centres undefined), the IC50 in assay [2] worked out at 42 nM; at Dihydrofolate reductase [3], 319 nM. This molecule also returned an Inhibition in assay [5] of 0%.
As for `Cc1cc(Cc2cnc(N)nc2N)cc(C)c1O`, the IC50 on Dihydrofolate reductase [1] stood at 71000 nM; at Dihydrofolate reductase [3], 526 nM.
Regarding `CCCCOc1c(CCC)cc(Cc2cnc(N)nc2N)cc1CCC`, the IC50 at Dihydrofolate reductase [1] was determined as 15000 nM; in assay [2], 5.8 nM; at Dihydrofolate reductase [3], 132 nM.
For `Cc1cc(Cc2cnc(N)nc2N)cc(C(C)(C)C)c1O`, the IC50 worked out at 120000 nM at Dihydrofolate reductase [1] and 259 nM at Dihydrofolate reductase [3].
Consider `CCc1cc(Cc2cnc(N)nc2N)cc(C(C)CC)c1N` (centres undefined), for which the IC50 was 27000 nM on Dihydrofolate reductase [1] and 75 nM on Dihydrofolate reductase [3].
Taken in the same sequence, the figures for `COc1cc(Cc2cnc(N)nc2N)cc(OC)c1N` were 520000 nM and 810 nM.
On to `COc1c(C)cc(Cc2cnc(N)nc2N)cc1C`, for which the IC50 was 250000 nM on Dihydrofolate reductase [1], 120 nM in assay [2] and 500 nM on Dihydrofolate reductase [3].
With `CCc1cc(Cc2cnc(N)nc2N)cc(C)c1O`, the IC50 at Dihydrofolate reductase [1] is 39000 nM; at Dihydrofolate reductase [3], 350 nM.
As for `CCc1cc(Cc2cnc(N)nc2N)cc(C)c1OC`, the IC50 on Dihydrofolate reductase [1] was 83000 nM; in assay [2] it was 120 nM; at Dihydrofolate reductase [3], 310 nM.
On to `CC(C)c1cc(Cc2cnc(N)nc2N)cc(C(C)C)c1O`, for which the IC50 amounted to 8900 nM at Dihydrofolate reductase [1], 110 nM in assay [2] and 29 nM at Dihydrofolate reductase [3].
For `COc1ccc(Cc2cnc(N)nc2N)cc1OC` [DIAVERIDINE], the figures for the IC50 on Dihydrofolate reductase [1] and at Dihydrofolate reductase [3] were 86000 nM and 530 nM, respectively.
Taken in the same sequence, the figures for `Nc1ncc(Cc2cc(Cl)c(N)c(Cl)c2)c(N)n1` were 130000 nM and 318 nM.
As for `COc1cc(Cc2cnc(N)nc2N)ccc1O`, on Dihydrofolate reductase [1], the IC50 was 35000 nM.
Turning to `Cc1cc(Cc2cnc(N)nc2N)cc(C)c1N`, the IC50 came to 380000 nM at Dihydrofolate reductase [1] and 485 nM at Dihydrofolate reductase [3].
Take `COc1c(I)cc(Cc2cnc(N)nc2N)cc1I`: the IC50 was determined as 16000 nM at Dihydrofolate reductase [1], 31 nM in assay [2] and 28 nM at Dihydrofolate reductase [3].
Regarding `Nc1ncc(Cc2cc(I)c(O)c(I)c2)c(N)n1`, the IC50 turned out to be 9900 nM at Dihydrofolate reductase [1], 53 nM in assay [2] and 28 nM at Dihydrofolate reductase [3].
Turning to `CCCc1cc(Cc2cnc(N)nc2N)cc(CCC)c1OC`, the results for the IC50 (at Dihydrofolate reductase [1]; in assay [2]; on Dihydrofolate reductase [3]) were 21000 nM, 20 nM and 60 nM, respectively.
`COc1c(C(C)(C)C)cc(Cc2cnc(N)nc2N)cc1C(C)(C)C`: the IC50 was found to be 31000 nM at Dihydrofolate reductase [1], 13 nM in assay [2] and 58 nM at Dihydrofolate reductase [3].
In the case of `CCCc1cc(Cc2cnc(N)nc2N)cc(CC)c1OC`, the IC50 was determined as 32000 nM at Dihydrofolate reductase [1], 10 nM in assay [2] and 44 nM on Dihydrofolate reductase [3].
In the case of `CCc1cc(Cc2cnc(N)nc2N)cc(CC)c1N`, the IC50 at Dihydrofolate reductase [1] turned out to be 38000 nM; at Dihydrofolate reductase [3], 107 nM.

The values above are taken from ChEMBL document CHEMBL1123675, “2,4-Diamino-5-benzylpyrimidines as antibacterial agents. 7. Analysis of the effect of 3,5-dialkyl substituent size and shape on binding to four different dihydrofolate reductase enzymes” (J Med Chem, 1987).
